Test results: US20250059194A1, “ULK1 AND ULK2 INHIBITORS” (Board of Trustees of Michigan State University, priority 2021, published 2025)
Counter-ions that a name gives are not always drawn.

Tests used:
[1] = biological target: ULK1 (Homo sapiens (Human), UniProt O75385); experiment: ULK1 IC50; assay type: biochemical
[2] = test system: Cell; experiment: Cell EC50; assay type: cell-based
[3] = Kinetic Solubility; assay type: physicochemical; settings: kinetic from dmso stock
[4] = biological target: ULK2 (Homo sapiens (Human), UniProt Q8IYT8); experiment: ULK2 IC50; assay type: biochemical
Chain of ULK2 (Q8IYT8 whole entry): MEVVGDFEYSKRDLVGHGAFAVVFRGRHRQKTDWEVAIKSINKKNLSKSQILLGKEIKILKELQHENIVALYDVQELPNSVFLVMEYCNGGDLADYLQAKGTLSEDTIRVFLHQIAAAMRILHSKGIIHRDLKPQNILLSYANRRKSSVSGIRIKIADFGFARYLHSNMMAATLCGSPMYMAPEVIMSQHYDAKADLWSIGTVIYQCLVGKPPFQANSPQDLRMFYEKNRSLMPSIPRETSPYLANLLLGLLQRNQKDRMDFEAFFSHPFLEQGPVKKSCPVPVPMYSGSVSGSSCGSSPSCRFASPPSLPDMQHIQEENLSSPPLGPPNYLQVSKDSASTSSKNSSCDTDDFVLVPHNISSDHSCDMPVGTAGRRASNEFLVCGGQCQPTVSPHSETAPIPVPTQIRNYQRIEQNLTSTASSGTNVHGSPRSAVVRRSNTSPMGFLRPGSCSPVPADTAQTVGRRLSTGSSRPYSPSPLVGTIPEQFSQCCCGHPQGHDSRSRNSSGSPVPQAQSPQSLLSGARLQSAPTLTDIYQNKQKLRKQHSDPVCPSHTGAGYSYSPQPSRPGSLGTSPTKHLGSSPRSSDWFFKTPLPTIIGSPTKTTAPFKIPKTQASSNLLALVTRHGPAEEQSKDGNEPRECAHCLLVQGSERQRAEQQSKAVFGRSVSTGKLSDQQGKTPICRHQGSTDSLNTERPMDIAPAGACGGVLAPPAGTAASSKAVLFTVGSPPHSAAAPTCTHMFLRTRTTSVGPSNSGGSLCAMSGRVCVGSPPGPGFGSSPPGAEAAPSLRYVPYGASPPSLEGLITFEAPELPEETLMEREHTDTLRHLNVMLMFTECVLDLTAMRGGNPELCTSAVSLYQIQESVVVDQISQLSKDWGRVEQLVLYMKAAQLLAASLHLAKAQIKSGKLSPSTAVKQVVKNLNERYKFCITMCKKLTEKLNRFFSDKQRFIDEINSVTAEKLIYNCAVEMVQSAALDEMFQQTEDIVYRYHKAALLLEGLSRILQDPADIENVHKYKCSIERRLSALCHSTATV

Chain of ULK1 (O75385 whole entry): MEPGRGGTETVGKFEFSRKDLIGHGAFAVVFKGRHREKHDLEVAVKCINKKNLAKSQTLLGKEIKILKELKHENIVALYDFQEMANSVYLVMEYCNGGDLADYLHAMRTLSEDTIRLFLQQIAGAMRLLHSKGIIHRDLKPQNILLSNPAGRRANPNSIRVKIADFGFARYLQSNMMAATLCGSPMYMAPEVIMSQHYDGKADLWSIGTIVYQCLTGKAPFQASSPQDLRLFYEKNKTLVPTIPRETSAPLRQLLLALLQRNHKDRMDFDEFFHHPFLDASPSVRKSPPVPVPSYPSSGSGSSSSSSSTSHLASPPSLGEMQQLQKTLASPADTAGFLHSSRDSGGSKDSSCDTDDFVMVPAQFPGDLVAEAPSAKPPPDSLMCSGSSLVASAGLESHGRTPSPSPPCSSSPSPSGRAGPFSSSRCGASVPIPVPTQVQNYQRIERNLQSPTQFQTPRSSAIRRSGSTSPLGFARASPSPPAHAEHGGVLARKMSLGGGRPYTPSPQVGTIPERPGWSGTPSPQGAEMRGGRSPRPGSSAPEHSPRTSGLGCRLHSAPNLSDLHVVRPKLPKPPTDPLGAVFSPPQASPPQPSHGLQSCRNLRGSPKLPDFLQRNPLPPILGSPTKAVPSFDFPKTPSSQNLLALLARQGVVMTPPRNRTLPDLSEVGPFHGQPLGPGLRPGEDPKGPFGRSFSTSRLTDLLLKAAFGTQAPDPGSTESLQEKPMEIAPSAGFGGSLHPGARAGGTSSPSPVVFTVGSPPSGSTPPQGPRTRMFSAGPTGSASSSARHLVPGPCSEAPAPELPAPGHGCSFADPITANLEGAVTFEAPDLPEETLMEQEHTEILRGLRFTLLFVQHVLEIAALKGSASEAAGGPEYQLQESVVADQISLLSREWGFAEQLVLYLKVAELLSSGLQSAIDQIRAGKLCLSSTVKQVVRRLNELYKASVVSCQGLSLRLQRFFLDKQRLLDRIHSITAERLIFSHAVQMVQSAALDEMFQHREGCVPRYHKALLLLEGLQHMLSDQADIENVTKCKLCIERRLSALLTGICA

IC50 [1] | EC50 [2] | solubility kinetic [3] | IC50 [4] | Structure (SMILES)
0.05 to 0.099 µM | > 1 µM | – | – | CCC(CC)NC(=O)c1cc(-c2cnn3cc(N4CCC(NC(=O)OC(C)(C)C)CC4)cnc23)cs1
0.001 to 0.049 µM | – | – | – | O=C(N[C@@H](C1CC1)C(F)(F)F)c1cc(-c2cnn3cc(Nc4ccc(F)cc4)cnc23)cs1
0.001 to 0.049 µM | – | – | – | CCC(NC(=O)c1cc(-c2cnn3cc(Nc4ccccc4)cnc23)cs1)C1CC1 (stereo not drawn)
0.001 to 0.049 µM | – | – | – | CC[C@H](NC(=O)c1cc(-c2cnn3cc(Nc4ccccc4)cnc23)cs1)C(F)(F)F
0.001 to 0.049 µM | – | – | – | O=C(N[C@@H](C1CC1)C(F)(F)F)c1cc(-c2cnn3cc(Nc4ccccc4)cnc23)cs1
0.001 to 0.049 µM | – | – | – | O=C(N[C@@H](C1CC1)C(F)(F)F)c1cc(-c2cnn3cc(N4CCNCC4)cnc23)cs1
0.001 to 0.049 µM | – | – | – | NC1CCN(c2cnc3c(-c4csc(C(=O)N[C@@H](C5CC5)C(F)(F)F)c4)cnn3c2)CC1
0.5 to 1 µM | – | – | – | CCC(CC)NC(=O)c1cc(-c2cnn3cc(-n4ccccc4=O)cnc23)cs1 [4-[6-(2-oxo-1,2-dihydropyridin-1-yl)pyrazolo[1,5-a]pyrimidin-3-yl]-N-(pentan-3-yl)thiophene-2-carboxamide]
0.001 to 0.049 µM | 0.1 to 0.499 µM | 203 µM | 0.05 to 0.099 µM | CCC(CC)NC(=O)c1cc(-c2cnn3cc(N4CCC(N)CC4)cnc23)cs1 [4-[6-(4-aminopiperidin-1-yl)pyrazolo[1,5-a]pyrimidin-3-yl]-N-(pentan-3-yl)thiophene-2-carboxamide hydrochloride]
0.1 to 0.499 µM | – | – | – | CCC(CC)NC(=O)c1cc(-c2cnn3cc(NC4CC4)cnc23)cs1 [4-[6-(cyclopropylamino)pyrazolo[1,5-a]pyrimidin-3-yl]-N-(pentan-3-yl)thiophene-2-carboxamide]
0.1 to 0.499 µM | – | – | 0.5 to 1 µM | CC(C)(CO)NC(=O)c1cc(-c2cnn3cc(N4CCNCC4)cnc23)cs1 [N-(1-hydroxy-2-methylpropan-2-yl)-4-[6-(piperazin-1-yl)pyrazolo[1,5-a]pyrimidin-3-yl]thiophene-2-carboxamide hydrochloride]
0.001 to 0.049 µM | 0.1 to 0.499 µM | – | 0.001 to 0.049 µM | CCC(CC)NC(=O)c1cc(-c2cnn3cc(Nc4ccccc4)cnc23)cs1 [N-(pentan-3-yl)-4-[6-(phenylamino)pyrazolo[1,5-a]pyrimidin-3-yl]thiophene-2-carboxamide]
0.5 to 1 µM | – | – | – | CCC(CC)NC(=O)c1cc(-c2cnn3cc(N4CCCC4)cnc23)cs1 [N-(pentan-3-yl)-4-[6-(pyrrolidin-1-yl)pyrazolo[1,5-a]pyrimidin-3-yl]thiophene-2-carboxamide]
0.001 to 0.049 µM | 0.001 to 0.049 µM | > 300 µM | 0.001 to 0.049 µM | N[C@@H]1CCCC[C@@H]1NC(=O)c1cc(-c2cnn3cc(N4CCNCC4)cnc23)cs1 [N-[(1S,2R)-2-aminocyclohexyl]-4-[6-(piperazin-1-yl)pyrazolo[1,5-a]pyrimidin-3-yl]thiophene-2-carboxamide dihyrochloride]
0.05 to 0.099 µM | 0.5 to 1 µM | > 300 µM | – | CCC(CC)NC(=O)c1cc(-c2cnn3cc(N4CCNCC4)cnc23)cs1 [hydrochloride]
0.001 to 0.049 µM | – | – | 0.1 to 0.499 µM | CC(C)(CO)NC(=O)c1cc(-c2cnn3cc(N4CCN(C(=O)OC(C)(C)C)CC4)cnc23)cs1 [tert-butyl 4-(3-{5-[(1-hydroxy-2-methylpropan-2-yl)carbamoyl]thiophen-3-yl}pyrazolo[1,5-a]pyrimidin-6-yl) piperazine-1-carboxylate]
0.001 to 0.049 µM | > 1 µM | – | – | CCC(CC)NC(=O)c1cc(-c2cnn3cc(N4CCN(C(=O)OC(C)(C)C)CC4)cnc23)cs1 [tert-butyl 4-(3-{5-[(pentan-3-yl)carbamoyl]thiophen-3-yl}pyrazolo[1,5-a]pyrimidin-6-yl) piperazine-1-carboxylate]

Structure (SMILES) | IC50 [1] | EC50 [2] | solubility kinetic [3] | IC50 [4]
CC(C)(C)OC(=O)N[C@@H]1CCCC[C@@H]1NC(=O)c1cc(-c2cnn3cc(N4CCN(C(=O)OC(C)(C)C)CC4)cnc23)cs1 [tert-butyl 4-[3-(5-{[(1S,2R)-2-{[(tert-butoxy)carbonyl]amino}cyclohexyl]carbamoyl}thiophen-3-yl)pyrazolo[1,5-a]pyrimidin-6-yl]piperazine-1-carboxylate] | 0.1 to 0.499 µM | – | – | 0.5 to 1 µM
